Reference: US6043220A, “Threonine-containing protegrins” (IntraBiotics Pharmaceuticals, Inc., priority 1997, dated 2000)
Values after ≈ are worked out from the molar mass of the structure shown. Square brackets hold non-standard residues; d marks the D form. Ends that are not written are not given here. Dbu = diaminobutyric acid (X in this publication); code O = not defined here; Orn = NCCC[C@H](N)C(=O)O

Legend:
[1] = tested on: ME-180 (human cervical carcinoma) cells; test: Cytotoxicity, MTT assay; assay type: cell-based; details: ME-180 cells
Method: Native protegrin PG-1 (SEQ ID NO:1) and melittin (SEQ ID NO:19) were tested as controls.

[2] = tested on: human red blood cells; test: Hemolytic activity against human red blood cells; details: FIG. 1; compared with native PG-1 and melittin
Method: In the assay, various concentrations of peptides were incubated with human red blood cells and the percentage of hemolysis determined.

[3] = tested on: methicillin resistant Staphylococcus aureus (MRSA); test: MIC, antimicrobial activity against MRSA; assay type: cell-based
From the text: (§1) Methods were as described in WO 97/18826.

[4] = tested on: vancomycin resistant Enterococcus faecium (VREF); test: MIC, antimicrobial activity against VREF; assay type: cell-based
From the text: as §1

[5] = tested on: Pseudomonas aruginosa (Psa); test: MIC, antimicrobial activity against Psa; assay type: cell-based
From the text: as §1

[6] = tested on: Candida albicans (C. alb); test: MIC, antimicrobial activity against C. alb; assay type: cell-based
From the text: as §1

[7] = tested on: VRE; test: In vitro serum availability, MCZ assay, indicator bacteria VRE; assay type: cell-based, vancomycin-resistant Enterococcus faecium or faecalis; details: 50 μg/mL peptide; 90% serum as diluent; activity in serum vs same peptide without serum (100%)
Method: (§2) Peptide was tested at 50 μg/ml against two different strains of indicator bacteria (E. coli and VRE) both in the presence and absence of serum. For experiments performed in the presence of serum, 90% serum was used as the peptide diluent. Native PG-1 (SEQ ID NO:1) was tested as a control.
(§3) Percent availability refers to the activity of the indicated peptide in serum as compared with the activity of the same peptide in the absence of serum (assigned a value of 100%).

[8] = tested on: E. coli; test: In vitro serum availability, MCZ assay, indicator bacteria E. coli; assay type: cell-based; details: 50 μg/mL peptide; 90% serum as diluent; activity in serum vs same peptide without serum (100%)
Method: as §2, §3

[9] = tested on: E. coli; test: Antimicrobial activity against E. coli in borate buffered saline with and without lysozyme; assay type: cell-based; details: presence vs absence of lysozyme
From the text: The protegrins of the invention retain their activity against microbes in the context of borate solutions that are commonly used in eye care products. […] This effect was more pronounced when the PG-3 was autoclaved and similar patterns were obtained for both the free-acid and the amide forms. Accordingly, the protegrins may be used as preservatives in such compositions or as antimicrobials for treatment of eye infections, such as conjunctivitis and corneal ulcers.

## CC[C@H](C)[C@H](NC(=O)CN)C(=O)NCC(=O)N[C@@H](C)C(=O)N[C@H](C(=O)N[C@@H](CC(C)C)C(=O)N[C@@H](CCCCN)C(=O)N[C@H](C(=O)N[C@@H](CC(C)C)C(=O)N[C@H](C(=O)N[C@H](C(=O)NCC(=O)N[C@@H](CC(C)C)C(=O)N1CCC[C@H]1C(=O)N[C@@H](C)C(=O)N[C@@H](CC(C)C)C(=O)N[C@H](C(=O)N[C@@H](CO)C(=O)N[C@@H](Cc1c[nH]c2ccccc12)C(=O)N[C@H](C(=O)N[C@@H](CCCCN)C(=O)N[C@@H](CCCNC(=N)N)C(=O)N[C@@H](CCCCN)C(=O)N[C@@H](CCCNC(=N)N)C(=O)N[C@@H](CCC(N)=O)C(=O)N[C@@H](CCC(N)=O)C(N)=O)[C@@H](C)CC)[C@@H](C)CC)[C@@H](C)O)[C@@H](C)O)C(C)C)C(C)C [Melittin, reference compound]
[1]
  EC50, MTT assay: 8.0 µg/mL (≈ 2.81 µM)

## CC(C)C[C@H](NC(=O)[C@H](CCCNC(=N)N)NC(=O)CNC(=O)CNC(=O)[C@@H](N)CCCNC(=N)N)C(=O)N[C@H]1CSSC[C@@H](C(=O)N[C@H](C(=O)NCC(=O)N[C@@H](CCCNC(=N)N)C(N)=O)C(C)C)NC(=O)[C@H](C(C)C)NC(=O)[C@@H]2CSSC[C@H](NC(=O)[C@H](Cc3ccc(O)cc3)NC1=O)C(=O)N[C@@H](CCCNC(=N)N)C(=O)N[C@@H](CCCNC(=N)N)C(=O)N[C@@H](CCCNC(=N)N)C(=O)N[C@@H](Cc1ccccc1)C(=O)N2 [Native PG-1, RGGRLCYCRRRFCVCVGR-NH2, reference compound]
[2]
  hemolytic activity against human red blood cells (in words): hemolytic against human red blood cells

## JLCFCOOOFCTCV-NH2
[3]
  MIC MRSA: 64 μ g/ml
[4]
  MIC VREF: 2 μ g/ml
[5]
  MIC Psa: 4 μ g/ml
[6]
  MIC C. alb.: 64 μ g/ml

## JTCFCOOOFCTCV-NH2
[3]
  MIC MRSA: > 128 μ g/ml
[4]
  MIC VREF: 32 μ g/ml
[5]
  MIC Psa: 16 μ g/ml
[6]
  MIC C. alb.: > 128 μ g/ml

## JTCYCOOOFCVCV-NH2
[3]
  MIC MRSA: 32 μ g/ml
[4]
  MIC VREF: 6.67 μ g/ml
[5]
  MIC Psa: 2 μ g/ml
[6]
  MIC C. alb.: > 64 μ g/ml

## OGGOTCYCOOOFCVCVGO-NH2 ([code O]GG[code O]TCYC[code O][code O][code O]FCVCVG[code O]-NH2; cysteine pairing not given here; reading uncertain; also: printed as OGGOTCYCOOOFCVCVGO-NH2)
[7]
  In Vitro Serum Availability (%) VRE: 9%
[3]
  MIC MRSA: > 64 μ g/ml
[4]
  MIC VREF: 3.3 μ g/ml
[5]
  MIC Psa: 1 μ g/ml
[6]
  MIC C. alb.: > 64 μ g/ml
[8]
  In Vitro Serum Availability (%) E. coli: 40%

## OTOLCYCOZOFCVCV-NH2
[7]
  In Vitro Serum Availability (%) VRE: 8%
[3]
  MIC MRSA: 64 μ g/ml
[4]
  MIC VREF: 8 μ g/ml
[5]
  MIC Psa: 2 μ g/ml
[6]
  MIC C. alb.: > 64 μ g/ml
[8]
  In Vitro Serum Availability (%) E. coli: 30%

## OTTLCYCOGOFCVCVGO-NH2 ([Orn]TTLCYC[Orn]G[Orn]FCVCVG[Orn]-NH2; cysteine pairing not given here)
[7]
  In Vitro Serum Availability (%) VRE: 3%
[3]
  MIC MRSA: 32 μ g/ml
[4]
  MIC VREF: 1 μ g/ml
[5]
  MIC Psa: 0.5 μ g/ml
[6]
  MIC C. alb.: 32 μ g/ml
[8]
  In Vitro Serum Availability (%) E. coli: 10%

## PG-3: naturally-occurring protegrin from porcine leukocytes; free-acid and amide forms (RGGGLCYCRRRFCVCVGR; ends and bridges not checked; also: free acid or amide forms; UniProt P32196 131-148, looked up)
[9]
  effect of lysozyme on antimicrobial effectiveness: the presence of lysozyme enhanced the effectiveness

## RGGRLCTCRRRFCVCVGR-NH2 (ends and bridges not checked) [[^7 T]PG-1]
[2]
  hemolytic activity against human red blood cells (in words): decreased hemolytic activity
[1]
  EC50, MTT assay: 50.4 µg/mL

## RGGRLCYCRRRFCTCVGR-NH2 (ends and bridges not checked) [[^14 T]PG-1]
[2]
  hemolytic activity against human red blood cells (in words): decreased hemolytic activity
[1]
  EC50, MTT assay: 154.8 µg/mL
[1]; MTT assay
  cytotoxicity compared with native PG-1 and melittin (in words): less cytotoxic than native PG-1 and the control peptide melittin

## RGGRLCYCRRRFCVCTGR-NH2 (ends and bridges not checked) [[^16 T]PG-1]
[2]
  hemolytic activity against human red blood cells (in words): decreased hemolytic activity
[1]
  EC50, MTT assay: 122.6 µg/mL

## RGGRTCYCRRRFCVCVGR-NH2 (ends and bridges not checked) [[^5 T]PG-1]
[2]
  hemolytic activity against human red blood cells (in words): decreased hemolytic activity
[7]
  In Vitro Serum Availability (%) VRE: 1.6%
[3]
  MIC MRSA: 8 μ g/ml
[4]
  MIC VREF: 0.3 μ g/ml
[5]
  MIC Psa: 2 μ g/ml
[1]
  EC50, MTT assay: 101.3 µg/mL
[6]
  MIC C. alb.: 8 μ g/ml
[8]
  In Vitro Serum Availability (%) E. coli: 10%

## WTCYCOOOFCVCV-NH2 (WTCYC[code O][code O][code O]FCVCV-NH2; cysteine pairing not given here; reading uncertain; also: printed as WTCYCOOOFCVCV-NH2)
[7]
  In Vitro Serum Availability (%) VRE: 2%
[3]
  MIC MRSA: 16 μ g/ml
[4]
  MIC VREF: 0.25 μ g/ml
[5]
  MIC Psa: 1 μ g/ml
[6]
  MIC C. alb.: 1.6 μ g/ml
[8]
  In Vitro Serum Availability (%) E. coli: 4%

## XTXLCYCXXXFCTCV-NH2 ([Dbu]T[Dbu]LCYC[Dbu][Dbu][Dbu]FCTCV-NH2; not fully specified (N-terminus); cysteine pairing not given here) [*XTXLCYCXXXFCTCV-NH2]
[3]
  MIC MRSA: 16 μ g/ml
[4]
  MIC VREF: 1 μ g/ml
[5]
  MIC Psa: 1.3 μ g/ml
[6]
  MIC C. alb.: 8 μ g/ml
